Here are results for seven molecules from DBAASP.

Converted amounts (≈) assume the structure as drawn.

Among the test systems are Staphylococcus aureus; Escherichia coli B; Bacillus subtilis; Pseudomonas aeruginosa; Enterococcus gallinarum; Raoultella terrigena; Acinetobacter baumannii; Enterococcus faecalis.
Experiment in all cases: ≥ marks a high value that may be exact or a test limit, other limits are often not marked, values filed in µg/mL are converted to µM
For test [1], the system named is Candida albicans F7-39/IDE99.
The subject of test [2] is Enterococcus faecalis ATCC 29212.
Test [3] has as its system Candida albicans ATCC 90028.
In test [4] the test system is Proteus mirabilis ATCC 25933.
For test [5], the system named is Staphylococcus epidermidis RP62A.
Test [6] has as its system Pseudomonas aeruginosa ATCC 27853.
In test [7] the test system is Klebsiella pneumoniae KK3 9904.
Test [8] concerns Enterobacter cloacae HNTCC 53001.
For test [9], the system named is Escherichia coli ATCC 25922.
The test system of test [10] is Staphylococcus aureus NCTC 8325.
Test [11] deals with Aggregatibacter actinomycetemcomitans ATCC 29522.
In test [12] the test system is Candida albicans ATCC 18804.
For test [13], the system named is Lactobacillus acidophilus NCTC 1723.
For test [14], the system named is Enterococcus faecalis NCTC 12697.
The test system of test [15] is Streptococcus mutans NCTC 10449.
The subject of test [16] is Staphylococcus aureus ATCC 25923.
The test system of test [17] is Candida albicans NCTC 3179.
In test [18] the test system is Stenotrophomonas maltophilia.
In test [19] the test system is Staphylococcus aureus ATCC 29213.
Test [20] deals with Escherichia coli ATCC 25726.
For test [21], the system named is Klebsiella pneumoniae ATCC 700603.
The test system of test [22] is Staphylococcus epidermidis RP62A/1.
Test [23] deals with Pseudomonas aeruginosa KCTC 1637.
For test [24], the system named is Fusarium oxysporum KCTC 6084.
Test [25] deals with Staphylococcus aureus KCTC 1621.
The test system of test [26] is Bacillus subtilis KCTC 3068.
Test [27] relates to Serratia marcescens KCTC 1299.
In test [28] the test system is Trichosporon beigelii KCTC 7251.
In test [29] the test system is Escherichia coli KCTC 1682.
Test [30] relates to Streptococcus pyogenes KCTC 3096.
Test [31] has as its system Salmonella typhimurium KCTC 1926.
Test [32] relates to Candida albicans KCTC 7121.
Test [33] concerns Aspergillus flavus KCTC 7375.

`CC(C)C[C@@H]1NC(=O)[C@H](CCCCN)NC(=O)[C@H](CC(C)C)NC(=O)[C@@H]2CCCN2C(=O)CNC(=O)[C@H](CCCCN)NC(=O)[C@@H](NC(=O)[C@H](CCCCN)NC(=O)CNC(=O)[C@H](CCCCN)NC(=O)[C@H](CCCCN)NC(=O)[C@H](CCCCN)NC(=O)[C@H](C)N)CSSC[C@@H](C(N)=O)NC(=O)[C@H](CCCCN)NC(=O)[C@H](C)NC(=O)[C@H](C(C)C)NC1=O` [AKKKGKCKGPLKLVAKC]: the MIC in the test with Staphylococcus aureus was above 100 µM; against Escherichia coli B, at least 100 µM; in [1] it was at least 100 µM; with Bacillus subtilis, at least 65 µM; against Pseudomonas aeruginosa, above 100 µM.
For the molecule `CSCC[C@H](NC(=O)[C@H](C)NC(C)=O)C(=O)N[C@H](C(=O)NCC(=O)N[C@H](C(=O)O)[C@@H](C)O)C(C)C` [AMVGT], the MIC against Enterococcus gallinarum is 26.3 µM (≈ 13.7 µg/mL); against Raoultella terrigena, 26.3 µM (≈ 13.7 µg/mL); in the test with Acinetobacter baumannii it was 26.3 µM (≈ 13.7 µg/mL); in the test with Enterococcus faecalis, at least 53.8 µM; against Pseudomonas aeruginosa, 26.3 µM (≈ 13.7 µg/mL).
In the case of `CSCC[C@H](NC(=O)[C@@H](NC(=O)[C@H](CCCCN)NC(=O)[C@H](CO)NC(=O)[C@H](C)NC(=O)[C@H](CC(C)C)NC(=O)[C@H](CO)NC(=O)CNC(=O)[C@@H](NC(=O)[C@@H](NC(=O)[C@H](CC(N)=O)NC(=O)[C@H](CCCCN)NC(=O)[C@H](C)NC(=O)[C@H](C)NC(=O)CNC(=O)[C@H](CCCCN)NC(=O)[C@H](CC(C)C)NC(=O)[C@@H](NC(=O)[C@H](CC(=O)O)NC(=O)[C@H](CC(C)C)NC(=O)[C@H](CC(C)C)NC(=O)CN)[C@@H](C)O)C(C)C)C(C)C)C(C)C)C(=O)N[C@@H](CCC(=O)O)C(=O)N[C@@H](CCCCN)C(=O)N[C@@H](CC(C)C)C(N)=O` [GLLDTLKGAAKNVVGSLASKVMEKL], the MIC in test [2] is 200 µM (≈ 508 µg/mL); in test [3] it was at least 200 µM; in test [4], at least 200 µM; in [5], at least 100 µM; in test [6] it was 100 µM (≈ 254 µg/mL); in test [7], at least 100 µM. The MIC in test [8] is at least 50 µM; in [9], 25 µM (≈ 63.6 µg/mL); in test [10], at least 200 µM.
Regarding `CC[C@H](C)[C@H](NC(=O)[C@H](CC(=O)O)NC(=O)[C@H](CCCCN)NC(=O)[C@H](C)NC(=O)[C@H](C)NC(=O)CNC(=O)[C@H](CCCCN)NC(=O)[C@H](CC(C)C)NC(=O)[C@@H](NC(=O)[C@H](CC(=O)O)NC(=O)[C@@H](NC(=O)[C@@H](NC(=O)CN)C(C)C)C(C)C)[C@@H](C)CC)C(=O)N[C@@H](C)C(=O)NCC(=O)N[C@@H](Cc1cnc[nH]1)C(=O)N[C@@H](CC(C)C)C(=O)N[C@@H](C)C(=O)N[C@@H](CO)C(=O)N[C@@H](CCCCN)C(=O)N[C@H](C(=O)N[C@@H](CCSC)C(N)=O)C(C)C` [GVVDILKGAAKDIAGHLASKVM], the MIC in test [11] was at least 222 µM; in test [12], at least 234 µM; in test [9], 114 µM (≈ 250 µg/mL).
As for `CSCC[C@H](NC(=O)[C@H](CC(C)C)NC(=O)CNC(=O)[C@@H](NC(=O)[C@H](Cc1ccccc1)NC(=O)[C@H](CO)NC(=O)[C@H](CC(=O)O)NC(=O)[C@@H](NC(=O)[C@H](CCCCN)NC(=O)[C@@H](N)Cc1cnc[nH]1)[C@@H](C)O)C(C)C)C(N)=O` [HKTDSFVGLM], the MIC in [13] is at least 441 µM; in test [14], at least 441 µM; in test [15] it was at least 441 µM; in [16], above 441 µM; in test [17], at least 441 µM; in test [6], above 441 µM. This molecule also came in with an MIC in test [9] above 441 µM.
As for `CC[C@H](C)[C@H](N)C(=O)N[C@@H](CCCCN)C(=O)N[C@@H](CC(C)C)C(=O)N[C@@H](CO)C(=O)N1CCC[C@H]1C(=O)N[C@@H](CCC(=O)O)C(=O)N[C@H](C(=O)N[C@@H](CCCCN)C(=O)N[C@@H](CCCCN)C(=O)N[C@@H](CC(N)=O)C(=O)N[C@@H](CC(C)C)C(=O)N[C@@H](CCCCN)C(=O)N[C@@H](CCCCN)C(=O)N[C@H](C(=O)N[C@@H](CC(C)C)C(=O)N[C@@H](CCCCN)C(=O)NCC(=O)N[C@@H](C)C(=O)N[C@H](C(=O)N[C@@H](CCCCN)C(=O)NCC(=O)N[C@@H](C)C(=O)N[C@H](C(=O)N[C@@H](C)C(=O)N[C@H](C(=O)N[C@@H](C)C(=O)N[C@@H](CCCCN)C(=O)N[C@@H](CCSC)C(=O)N[C@H](C(N)=O)C(C)C)C(C)C)[C@@H](C)CC)[C@@H](C)CC)C(C)C)[C@@H](C)O` [IKLSPETKKNLKKVLKGAIKGAIAVAKMV], the MIC in test [3] was at least 50 µM; against Acinetobacter baumannii, 3.1 µM (≈ 9.54 µg/mL); in test [18], 3.1 µM (≈ 9.54 µg/mL); in [19], 3.1 µM (≈ 9.54 µg/mL); in test [20], 6.25 µM (≈ 19.2 µg/mL); in test [4] it was at least 100 µM. Further, the MIC stood at 3.1 µM (≈ 9.54 µg/mL) in [16]; 1.6 µM (≈ 4.92 µg/mL) in [5]; 12.5 µM (≈ 38.5 µg/mL) in [21]; 25 µM (≈ 76.9 µg/mL) in test [6]; 0.8 µM (≈ 2.46 µg/mL) in [22].
As for `CC[C@H](C)[C@H](NC(=O)[C@H](CCCCN)NC(=O)[C@H](CCCCN)NC(=O)[C@H](Cc1ccccc1)NC(=O)[C@H](CC(C)C)NC(=O)[C@H](CCCCN)NC(=O)[C@H](Cc1c[nH]c2ccccc12)NC(=O)[C@H](CCCCN)NC(=O)[C@@H]1CCCN1C(=O)[C@H](Cc1ccccc1)NC(=O)[C@H](CCCCN)NC(=O)[C@H](CCCCN)NC(=O)[C@H](C)NC(=O)[C@H](CC(C)C)NC(=O)[C@H](Cc1cnc[nH]1)NC(=O)[C@H](CC(C)C)NC(=O)[C@H](Cc1ccccc1)NC(=O)[C@@H](N)CCCCN)C(N)=O` [KFLHLAKKFPKWKLFKKI], the MIC in [23] worked out at 1.56 µM (≈ 3.59 µg/mL); in [24], 25 µM (≈ 57.5 µg/mL); in test [25] it was 1.56 µM (≈ 3.59 µg/mL); in test [26], 0.78 µM (≈ 1.79 µg/mL); in [27], 3.13 µM (≈ 7.2 µg/mL); in test [28], 12.5 µM (≈ 28.7 µg/mL). For the same molecule, the MIC in [29] is 3.13 µM (≈ 7.2 µg/mL); in test [30] it was 3.13 µM (≈ 7.2 µg/mL); in [31] it was 1.56 µM (≈ 3.59 µg/mL); in test [32] it was 12.5 µM (≈ 28.7 µg/mL); in test [33], 25 µM (≈ 57.5 µg/mL).
